The target in one data set is IRF5. The conditions noted are these: ASO.
The target in a further data set is HBV. The note with it: ASO.

Where “and” joins values, the source holds several entries; their conditions need not be identical. Equal entries are not always repeated. After the bases stand the sugars from the 5' end (letter, count) and the backbone: PS all phosphorothioate, else s phosphorothioate and o phosphodiester by linkage. HELM strings list units from the 5' end as sugar, base in round brackets, then linkage (d deoxyribose, r ribose, m 2'-O-methyl, p phosphodiester). Methylation of C is not given here. [mop] = methoxypropylphosphonate linkage; [moe] = 2'-O-(2-methoxyethyl) (MOE); [cEt] = constrained ethyl (cEt); [sp] = phosphorothioate linkage; e = 2'-O-(2-methoxyethyl) (MOE); k = constrained ethyl (cEt); d = 2'-deoxy (DNA); m = 2'-O-methyl

The values that follow come from the OligoGym collection.

In the case of “GGTTCTTGGACTCTCA (sugars kdddddddddkekeke, PS)”, the target mRNA inhibition with IRF5 (KARPAS-229, 4 µM) was 0%.
Regarding “GGTTCTTGGACTCTCA (sugars kkkdddddddddkeke, PS)”, the target mRNA inhibition was 41% in the data set with IRF5 (KARPAS-229, 0.44444 µM); 56% in the data set with IRF5 (KARPAS-229, 1.33333 µM); 48% and 67% with IRF5 (KARPAS-229, 4 µM); 81% in the data set with IRF5 (KARPAS-229, 12 µM).
Substance “GTCTAGTGTCATGGAA (sugars kkddddddddkekekk, PS)” gave a target mRNA inhibition in the data set with IRF5 (KARPAS-229, 4 µM) of 9%.
In turn, “GTCTGGCCCTTTTGGA (sugars k2 d9 e3 k2, PS)” showed a target mRNA inhibition in the data set with IRF5 (KARPAS-229, 4 µM) of 0%.
“GTCTGGCCCTTTTGGA (sugars k3 d9 k3 e1, PS)”: the target mRNA inhibition in the data set with IRF5 (KARPAS-229, 4 µM) turned out to be 0%.
Substance “GTCTGGCCCTTTTGGA (sugars kkdddddddddkdkdk, PS)” displayed a target mRNA inhibition with IRF5 (KARPAS-229, 4 µM) of 0%.
On the same count and under the same terms, the figure for “GTCTGGCCCTTTTGGA (sugars kkddddddddkekekk, PS)” is 0%; for “GTCTTGACCTCCCGCT (sugars kkdddddddddkdkdk, PS)” it is 46%.
Still for that read-out and setting: the figure for “GTCTTGACCTCCCGCT (sugars kkdddddddddkekek, PS)” is 40%; for “GTCTTGACCTCCCGCT (sugars kkkddddddddkekek, PS)” it is 23%.
On the same count and under the same terms, next, “GTCTTTGAGGTCTGGG (sugars kddddddddddkekek, PS)”: 0%; “GTCTTTGAGGTCTGGG (sugars kdddddddddkekeke, PS)”: 33%.
As to “GTGAGTCTCAAACCAG (sugars kekdddddddddeekk, PS)”, the target mRNA inhibition with IRF5 (KARPAS-229, 4 µM) amounted to 22%.
Same read-out and setting: the figure for “GTGAGTCTCAAACCAG (sugars kkkddddddddkdkdk, PS)” is 0%; for “GTGAGTCTCAAACCAG (sugars kkkddddddddkekek, PS)” it is 0%.
The same measure, in the same setting: next, “GTGTATTTCCCTGTCT (sugars kkddddddddddkeke, PS)”: 0%; “GTGTATTTCCCTGTCT (sugars kkddddddddkekekk, PS)”: 0%; GTTATCTCCGTCCTGG (sugars k3 d10 k3, PS): 31%.
As to “GTTCTTGGACTCTCAA (sugars k2 d9 e3 k2, PS)”, the target mRNA inhibition with IRF5 (KARPAS-229, 4 µM) stood at 22%.
Regarding “RNA1{[cEt](A)[sp].[moe](G)[sp].[cEt](C)[sp].d(G)[sp].d(A)[sp].d(A)[sp].d(G)[sp].d(T)[sp].d(G)[sp].d(C)[sp].d(A)[sp].[moe](C)[sp].[moe](A)[sp].[moe](C)[sp].[moe](G)[sp].[moe](G)}$$$$V2.0”, the target mRNA inhibition with HBV (HepG2, 0.009375 µM) came to 37%; with HBV (HepG2, 0.01875 µM) it was 39%; with HBV (HepG2, 0.0375 µM) it was 59%; with HBV (HepG2, 0.075 µM) it was 72%; in the data set with HBV (HepG2, 0.15 µM), 86%; with HBV (HepG2, 0.3 µM), 90%.
As to “RNA1{[cEt](A)[sp].d(G)[sp].[cEt](G)[sp].d(T)[sp].[cEt](G)[sp].d(A)[sp].d(A)[sp].d(G)[sp].d(C)[sp].d(G)[sp].d(A)[sp].d(A)[sp].d(G)[sp].d(T)[sp].[moe](G)[sp].[moe](C)}$$$$V2.0”, the target mRNA inhibition amounted to 14% with HBV (HepG2, 0.009375 µM); 21% with HBV (HepG2, 0.01875 µM); 42% with HBV (HepG2, 0.0375 µM); 61% in the data set with HBV (HepG2, 0.075 µM); 80% with HBV (HepG2, 0.15 µM); 92% with HBV (HepG2, 0.3 µM).
TACCCAATGCAACATC (sugars k3 d10 k3, PS): in the data set with IRF5 (KARPAS-229, 4 µM), the target mRNA inhibition is 0%.
Same read-out and setting: the figure for TAGGACGAGTTATGGG (sugars k3 d10 k3, PS) is 25%; for “TATCTCCGTCCTGGCT (sugars kdddddddddkekeke, PS)” it is 0%; for “TATCTCCGTCCTGGCT (sugars kkddddddddkekekk, PS)” it is 6%.
“TATTTCTGCTCCAGGT (sugars k2 d8 e4 k2, PS)” returned a target mRNA inhibition with IRF5 (KARPAS-229, 4 µM) of 43%.
As to “TATTTCTGCTCCAGGT (sugars kkddddddddddkeke, PS)”, the target mRNA inhibition in the data set with IRF5 (KARPAS-229, 0.44444 µM) was 40%; with IRF5 (KARPAS-229, 1.33333 µM), 53%; with IRF5 (KARPAS-229, 4 µM), 49% and 71%; in the data set with IRF5 (KARPAS-229, 12 µM) it was 79%.
As for “TATTTCTGCTCCAGGT (sugars kkdddddddddkdkdk, PS)”, the target mRNA inhibition in the data set with IRF5 (KARPAS-229, 4 µM) is 27%.
Same read-out and setting: the figure for “TCACCACTGTGTACCC (sugars k2 d9 e3 k2, PS)” is 0%.
The same measure, in the same setting: next, TCATGAGTAATAGGAG (sugars k3 d10 k3, PS): 11%.
Consider TCATTTGCCTTCTGCA (sugars k3 d10 k3, PS), for which the target mRNA inhibition with IRF5 (KARPAS-229, 4 µM) amounted to 6%.
The same measure, in the same setting: the figure for “TCCAATTTTGCATTCC (sugars kkddddddddkekekk, PS)” is 15%.
For the substance TCTGATATGATACCTA (sugars k3 d10 k3, PS), the target mRNA inhibition is 8% in the data set with IRF5 (A-431, 0.00412 µM); 27% with IRF5 (A-431, 0.01225 µM); 54% with IRF5 (A-431, 0.03704 µM); 78% with IRF5 (A-431, 0.11111 µM); 89% with IRF5 (A-431, 0.33333 µM); 92% in the data set with IRF5 (A-431, 1 µM). For the same substance, the target mRNA inhibition is 59% in the data set with IRF5 (KARPAS-229, 0.44444 µM); 68% in the data set with IRF5 (KARPAS-229, 1.33333 µM); 63% and 78% with IRF5 (KARPAS-229, 4 µM); 83% with IRF5 (KARPAS-229, 12 µM).
Regarding “TCTGAUATGATACCTA (sugars k3 d2 m1 d7 k3, PS)”, the target mRNA inhibition with IRF5 (A-431, 0.00412 µM) came to 0%; in the data set with IRF5 (A-431, 0.01225 µM), 12%; with IRF5 (A-431, 0.03704 µM) it was 35%; in the data set with IRF5 (A-431, 0.11111 µM), 58%; in the data set with IRF5 (A-431, 0.33333 µM), 79%; with IRF5 (A-431, 1 µM), 83%.
Turning to “TCTTGACCTCCCGCTG (sugars kdddddddddkekeke, PS)”, the target mRNA inhibition in the data set with IRF5 (KARPAS-229, 4 µM) was determined as 40%.
Same read-out and setting: the figure for “TGAGTCATGGGCTGAG (sugars k3 d9 k3 e1, PS)” is 11%; for “TGAGTCATGGGCTGAG (sugars kkdddddddddkdkdk, PS)” it is 12%; for “TGAGTCATGGGCTGAG (sugars kkkddddddddkdkdk, PS)” it is 3%.
“TGAGTCTCAAACCAGG (sugars k2 d9 e3 k2, PS)” returned a target mRNA inhibition with IRF5 (KARPAS-229, 4 µM) of 0%.
On the same count and under the same terms, next, “TGAGTCTCAAACCAGG (sugars kkddddddddddkeke, PS)”: 7%; “TGCACTGACACAGGCG (sugars k2 d9 e3 k2, PS)”: 18%.
Still for that read-out and setting: the figure for “TGCACTGACACAGGCG (sugars kkdddddddddkekek, PS)” is 0%; for TGCTCTAAACCATTCT (sugars k3 d10 k3, PS) it is 0%; for “TGTCACATCTCCACAT (sugars kdddddddddkekeke, PS)” it is 0%.
Regarding “TGTCTAGTGTCATGGA (sugars k2 d9 e3 k2, linkages s3 [mop]1 s11)”, the target mRNA inhibition with IRF5 (A-431, 0.00412 µM) came to 0%; in the data set with IRF5 (A-431, 0.01225 µM) it was 15%; with IRF5 (A-431, 0.03704 µM) it was 10%; with IRF5 (A-431, 0.11111 µM), 39%; with IRF5 (A-431, 0.33333 µM), 58%; with IRF5 (A-431, 1 µM), 75%.
In turn, “TGTCTAGTGTCATGGA (sugars kkddddddddddkeke, PS)” gave a target mRNA inhibition with IRF5 (KARPAS-229, 4 µM) of 44%.
In turn, “TGTCTAGTGTCATGGA (sugars kkddddddddkekekk, PS)” registered a target mRNA inhibition in the data set with IRF5 (KARPAS-229, 4 µM) of 10%.
On to “TGTCTAGTGTCATGGA (sugars kkddkddddddeeekk, PS)”, for which the target mRNA inhibition with IRF5 (A-431, 0.00412 µM) was 0%; with IRF5 (A-431, 0.01225 µM), 0%; with IRF5 (A-431, 0.03704 µM) it was 9%; with IRF5 (A-431, 0.11111 µM), 17%; with IRF5 (A-431, 0.33333 µM), 13%; with IRF5 (A-431, 1 µM), 29%.
As to “TGTCTAGTGTCATGGA (sugars kkdkdddddddeeekk, PS)”, the target mRNA inhibition with IRF5 (A-431, 0.00412 µM) worked out at 0%; in the data set with IRF5 (A-431, 0.01225 µM), 5%; with IRF5 (A-431, 0.03704 µM), 6%; with IRF5 (A-431, 0.11111 µM), 24%; with IRF5 (A-431, 0.33333 µM) it was 23%; with IRF5 (A-431, 1 µM), 41%.
For the substance “TGTCTAGTGTCATGGA (sugars kkkddddddddkekek, PS)”, in the data set with IRF5 (KARPAS-229, 4 µM), the target mRNA inhibition came to 57%.
Consider TGTGACTGTATTACCT (sugars k3 d10 k3, PS), for which the target mRNA inhibition with IRF5 (KARPAS-229, 0.44444 µM) is 38%; with IRF5 (KARPAS-229, 1.33333 µM), 44%; in the data set with IRF5 (KARPAS-229, 4 µM) it was 81% and 66%; in the data set with IRF5 (KARPAS-229, 12 µM), 78%.
With TGTTGAATTTTGTGAC (sugars k3 d10 k3, PS), the target mRNA inhibition in the data set with IRF5 (KARPAS-229, 4 µM) turned out to be 26%.
On the same count and under the same terms, the figure for “TTATCTCCGTCCTGGC (sugars kkddddddddddkeke, PS)” is 0%; for “TTATCTCCGTCCTGGC (sugars kkdddddddddkekek, PS)” it is 0%.
With “TTATCTCCGTCCTGGC (sugars kkddddddddkekekk, PS)”, the target mRNA inhibition with IRF5 (KARPAS-229, 4 µM) came out at 0%.
The same measure, in the same setting: next, “TTATTTCTGCTCCAGG (sugars kkkdddddddddkeke, PS)”: 43%.
As for “TTATTTCTGCTCCAGG (sugars kkkddddddddkdkdk, PS)”, the target mRNA inhibition is 42% with IRF5 (KARPAS-229, 0.44444 µM); 62% with IRF5 (KARPAS-229, 1.33333 µM); 57% and 67% with IRF5 (KARPAS-229, 4 µM); 79% in the data set with IRF5 (KARPAS-229, 12 µM).
Take TTCCAATTTTGCATTC (sugars k3 d10 k3, PS): the target mRNA inhibition with IRF5 (KARPAS-229, 4 µM) was 39%.
On the same count and under the same terms, next, “TTCTTGGACTCTCAAG (sugars kddddddddddkekek, PS)”: 0%; “TTCTTGGACTCTCAAG (sugars kdddddddddkekeke, PS)”: 0%; “TTGTCTAGTGTCATGG (sugars k3 d9 k3 e1, PS)”: 20%.
The same measure, in the same setting: the figure for “TTGTCTAGTGTCATGG (sugars kddddddddddkekek, PS)” is 44%.
The same measure, in the same setting: the figure for TTTGTGACTGTATTAC (sugars k3 d10 k3, PS) is 50%.
